Reference: US11571454B2, “Anticancer peptides that synergistically enhance chemotherapeutic potency” (The Penn State Research Foundation, priority 2017, dated 2023)
Marks after values point to notes of the source that are not given here.

Columns and labels:
[1] = test system: patient-derived tumor cell spheroids (EOC15, 17, 19); experiment: Ex vivo 3D tumor spheroid culture; type: cell-based, human; conditions: 2 μM cisplatin or 4 μM MAD1 alone, 48 hours
Description: EOC patient-derived cells were cultured in 1:1 MCDB-105: M199 supplemented with 10% FBS and 1% penicillin-streptomycin. EOC patient-derived cells were provided by Dr. Katherine M. Aird under an Institutional Review Board-approved protocol. EOC patient-derived cells were collected from patient ascites fluid after paracentesis procedures. Cells were routinely tested for mycoplasma as previously described. […] Spheroid length and width was calculated using ImageJ. Spheroid volume was calculated using the following equation […] Statistical Methods […] IC50 values are reported as mean values±standard deviation. […] Pore size frequency distribution was completed by ImageJ FIJI on 4 independent cells and n=30 pores from SEM images. […] Individual UV-Vis and CD spectra, as well as fluorescent confocal and TEM micrographs, shown are representative plots from three individual experiments. CD data is with a variance in ellipticity of 0.2 millidegrees at each wavelength. Relative fluorescence data calculated from fluorescent confocal images represents the average of 10 independent measurements±standard deviation. For spheroid volume analysis, a Kruskal-Wallis test and Dunn's multiple comparisons test was performed using GraphPad Prism 8.

[2] = test system: MR S. aureus; conditions: 24 hours, Gram Positive
[3] = Liposome disruption (OD600), normal membrane model
Description: Liposomes were prepared by extrusion techniques according to previous methods. Briefly, all liposomes were prepared in 2×concentration (5 mM). Healthy and cancer liposomal mimicking membranes were prepared with 72:23:[…] phosphatidylcholine (POPC):phosphatidylethanolamine (DOPE):phosphatidylserine (POPS) lipids, respectively. The lipids dissolved in chloroform were mixed in proper molar proportions before being evaporated under a stream of argon. The lipid film was then dried completely by lyophilization overnight. […] The extruded liposomes were then dialyzed in 3500 MWCO dialysis cassettes against water. Parallel optical density experiments were conducted measuring the absorbance at 600 nm (OD600) to track the kinetics and specificity of membrane disruption. Measurements were taken every 30 seconds for the first 10 min., followed by measurements every minute until 15 min.

[4] = test system: polymicrobial panel (six bacterial lines); experiment: Antimicrobial activity against polymicrobial panel; type: cell-based
[5] = test system: OVCAR-3 cells; experiment: Annexin V-PI flow cytometry apoptosis assay; type: cell-based, human; conditions: IC50 of MAD1 (14 μM)
Description: OVCAR-3 cells were first seeded at 2×10^5 cells/well in 12 well plates. The cells were then allowed to adhere overnight. […] Wells were left in 5% serum media for negative and compensation controls. Cells were then trypsinized, washed in cold PBS, and centrifuged at 3,000 rpm at 15° C. for 5 min. After the supernatant was aspirated, the cells were resuspended in 100 μL of Annexin V Binding Buffer. In the dark, 5 μL of FITC Annexin V and 10 μL of Propidium Iodine solution were added to the cells, with compensation controls of a negative control with no staining, a FITC Annexin V only control, and a PI only control. The cells were then vortexed gently to combine and allowed to incubate for 15 min. at room temperature. 400 μL of Annexin V Binding Buffer was then added to each tube and stored on ice prior to analyzing by flow cytometry.
Flow cytometry was conducted on a LSRFortessa Flow Cytometer (BD Biosciences, Franklin Lakes, N.J.) using 488 nm and 532 nm lasers for FITC and PE-Texas Red signals to detect Annexin V and PI, respectively. Compensation was completed for 10,000 cells, and experiments were conducted over 20,000 cells.

[6] = test system: M. tuberculosis; conditions: 24 hours, Mycobacteria
[7] = test system: E. coli; conditions: 24 hours, Gram Negative
[8] = test system: human umbilical vein endothelial cells (HUVEC); conditions: read-out: Healthy (IC50, μM) HUVEC; 48 hours treatment, MTT

H-KRWHWWRRHWVVW-NH2 [MAD1]
spheroid size, single agent [1]: minimal reduction in size | MIC (μM) MR S. aureus [2]: >80^a μM | disruption/interaction with normal (healthy) membrane liposomes [3]: did not lyse | antimicrobial activity against polymicrobial panel [4]: bactericidal activity | cell necrosis (% of population) ([5]; 2 hours): 16% | late apoptotic phenotype (% of cells) ([5]; 2 hours): 65% | early apoptotic stage (% of cells) ([5]; 24 hours): 19% | late apoptotic stage (% of cells) ([5]; 24 hours): 77% | MIC (μM) M. tuberculosis [6]: 2.5 µM | MIC (μM) E. coli [7]: 25 µM | IC50 [8]: > 100 µM
